Results on five molecules are retold here after PubChem BioAssay AID624134 (Broad Institute, 2012).

A word on the AC50: it is the concentration giving half of the maximal activity seen.

This assay has as its system HepG2 viability, CellTiter-Glo ATP luminescence, 48 h. Description: loss of viability in HepG2 cells – cell-based, CellTiter-Glo, cherry-picked, cytotoxicity control for Shn3 inhibitor project, dose response (AID 624134). On the technique in general: ATP-based viability assays read luminescence as a measure of living cells.

SMILES strings stand for the structures. “And” between values parts separate entries of the source, which are not always exact repeats. Equal values may be shown once. Records with an inconclusive call do not appear. The source made the active and inactive calls.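 How the source made its calls: active means signal drop with fitted half-maximal concentration no higher than twice the top valid tested concentration; inconclusive means flat curve with 30 to 70% signal loss, or poor fit; inactive means the rest, including signal rises and flat curves within 30%.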 Some results are limits rather than exact numbers.

As to `CCN1CCN(Cc2ccc(NC(=O)c3cc(NC(=O)c4cc5cccc(OC)c5o4)cc(OC)c3)cc2C(F)(F)F)CC1`, the AC50 is 18.9 µM and 9.13 µM.
With `CC(=O)OC[C@]12CCC(C)=C[C@H]1O[C@@H]1[C@H](O)[C@@H](OC(C)=O)[C@@]2(C)[C@]12CO2`, the AC50 is > 70 µM (inactive).
With `C[C@H]1[C@@H](OS(=O)(=O)O)C[C@@H]2C[C@H]([C@@H](O)c3cc(=O)[nH]c(=O)[nH]3)NC3=NC[C@H]1N32`, the AC50 was 8.33 µM.
On to `CC(=O)OC1C(=O)OCC23CCC4(C)OC4C2OC2CC(OC(=O)C=CC=CC(=O)OCCC1C)C3(C)C21CO1` (stereo not given), for which the AC50 was > 70 µM (inactive).
Regarding `CC(=O)OCC12CC(OC(=O)CC(C)C)C(C)=CC1OC1C(O)C(OC(C)=O)C2(C)C12CO2` (stereo not given), the AC50 is > 70 µM (inactive).
